In US20090119801A1, “Method for preserving cut flowers, cut flower preservation kit, method for manufacturing processed cut flowers, and processed cut flowers” (SUNTORY FLOWERS LIMITED, priority 2007, published 2009):

Test: Volatilization rate of organic solvents (Table 2)
Type: physicochemical
Settings: not given

| Compound | volatilization rate (%) |
| --- | --- |
| CCCCC(CC)COCCOCCO (stereo not shown) [2-[2-(2-ethylhexyloxy)ethoxy]ethanol] | 0 |
| OCCO [ethylene glycol] | 0 |

More lines, now with the values ahead:

| volatilization rate (%) | Compound |
| --- | --- |
| 1 | CCCCC(CC)COCCO (stereo not shown) [2-(2-ethylhexyloxy)ethanol] |
| 0 | CCCC(O)C(CC)CO (stereo not shown) [2-ethyl-1,3-hexanediol] |
| 3 | CC(O)CC(C)(C)O (stereo not shown) [2-methyl-2,4-pentanediol] |
| 0 | CC(CCO)CCO [3-methyl-1,5-pentanediol] |
| 0 | OCC(O)CO [glycerin] |

Test: not given
Settings: logP; cited from earlier work

| Compound | partition coefficient |
| --- | --- |
| C1COCCO1 [1,4-dioxane] | −0.271 |
| CO [Methanol] | −0.719 |
| CC(C)=O [acetone] | −0.157 |
